Results reported in PubChem BioAssay (NCI).
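GI50 is the concentration that inhibits growth by half. Definition used: TGI = concentration required for complete inhibition of growth.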

Experiments:
Assay in all cases: NCI-60 cell line screen, 384-well format
786-0 renal = test system: 786-0 renal
A498 renal = test system: A498 renal
A549 NSCLC = test system: A549 NSCLC
ACHN renal = test system: ACHN renal
BT-549 breast = test system: BT-549 breast
CAKI-1 renal = test system: CAKI-1 renal
CCRF-CEM leukemia = test system: CCRF-CEM leukemia
COLO 205 colon = test system: COLO 205 colon
DU-145 prostate = test system: DU-145 prostate
EKVX NSCLC = test system: EKVX NSCLC
HCC-2998 colon = test system: HCC-2998 colon
HCT-116 colon = test system: HCT-116 colon
HCT-15 colon = test system: HCT-15 colon
HL-60(TB) leukemia = test system: HL-60(TB) leukemia
HOP-62 NSCLC = test system: HOP-62 NSCLC
HOP-92 NSCLC = test system: HOP-92 NSCLC
HS 578T breast = test system: HS 578T breast
HT29 colon = test system: HT29 colon
IGROV1 ovarian = test system: IGROV1 ovarian
K-562 leukemia = test system: K-562 leukemia
KM12 colon = test system: KM12 colon
LOX IMVI melanoma = test system: LOX IMVI melanoma
M14 melanoma = test system: M14 melanoma
MALME-3M melanoma = test system: MALME-3M melanoma
MCF7 breast = test system: MCF7 breast
MDA-MB-231 breast = test system: MDA-MB-231 breast
MDA-MB-435 melanoma = test system: MDA-MB-435 melanoma
MDA-MB-468 breast = test system: MDA-MB-468 breast
MOLT-4 leukemia = test system: MOLT-4 leukemia
NCI-H226 lung = test system: NCI-H226 lung
NCI-H23 lung = test system: NCI-H23 lung
NCI-H322M lung = test system: NCI-H322M lung
NCI-H460 NSCLC = test system: NCI-H460 NSCLC
NCI-H522 lung = test system: NCI-H522 lung
NCI/ADR-RES ovarian = test system: NCI/ADR-RES ovarian
OVCAR-3 ovarian = test system: OVCAR-3 ovarian
OVCAR-4 ovarian = test system: OVCAR-4 ovarian
OVCAR-5 ovarian = test system: OVCAR-5 ovarian
OVCAR-8 ovarian = test system: OVCAR-8 ovarian
PC-3 prostate = test system: PC-3 prostate
RPMI-8226 leukemia = test system: RPMI-8226 leukemia
RXF 393 renal = test system: RXF 393 renal
SF-268 CNS = test system: SF-268 CNS
SF-295 CNS = test system: SF-295 CNS
SF-539 CNS = test system: SF-539 CNS
SK-MEL-2 melanoma = test system: SK-MEL-2 melanoma
SK-MEL-28 melanoma = test system: SK-MEL-28 melanoma
SK-MEL-5 melanoma = test system: SK-MEL-5 melanoma
SK-OV-3 ovarian = test system: SK-OV-3 ovarian
SN12C renal = test system: SN12C renal
SNB-19 CNS = test system: SNB-19 CNS
SNB-75 CNS = test system: SNB-75 CNS
SW-620 colon = test system: SW-620 colon
T-47D breast = test system: T-47D breast
TK-10 renal = test system: TK-10 renal
U251 glioblastoma = test system: U251 glioblastoma
UACC-257 melanoma = test system: UACC-257 melanoma
UACC-62 melanoma = test system: UACC-62 melanoma
UO-31 renal = test system: UO-31 renal

C#CC(F)(F)[C@]1(O)CC[C@H]2[C@@H]3CCC4=CC(=O)CCC4=C3[C@@H](c3ccc(C4CC4)cc3)C[C@@]21C
GI50 ([…]-0 renal): 10.7 nM | TGI (786-0 renal): 24 nM | GI50 (A498 renal): 13.2 nM | TGI (A498 renal): 26.1 nM | GI50 (A549 NSCLC): 39.5 nM | TGI (A549 NSCLC): 190 nM | GI50 (ACHN renal): < 10 nM | TGI (ACHN renal): < 10 nM | GI50 (BT-549 breast): 20.3 nM | TGI (BT-549 breast): 42.2 nM | GI50 (CAKI-1 renal): < 10 nM | TGI (CAKI-1 renal): < 10 nM | GI50 (CCRF-CEM leukemia): < 10 nM | TGI (CCRF-CEM leukemia): < 10 nM | GI50 (COLO 205 colon): 1320 nM | TGI (COLO 205 colon): 4.58 µM | GI50 (DU-145 prostate): 1540 nM | TGI (DU-145 prostate): 3.18 µM | GI50 (EKVX NSCLC): < 10 nM | TGI (EKVX NSCLC): 10.9 nM | GI50 (HCC-2998 colon): 23.9 nM | TGI (HCC-2998 colon): 50.7 nM | GI50 (HCT-116 colon): 1760 nM | TGI (HCT-116 colon): 3.35 µM | GI50 (HCT-15 colon): 245 nM | TGI (HCT-15 colon): 2300 nM | GI50 (HL-60(TB) leukemia): < 10 nM | TGI (HL-60(TB) leukemia): < 10 nM | GI50 (HOP-62 NSCLC): < 10 nM | TGI (HOP-62 NSCLC): 41.1 nM | GI50 (HOP-92 NSCLC): < 10 nM | TGI (HOP-92 NSCLC): < 10 nM | GI50 (HS 578T breast): 377 nM | TGI (HS 578T breast): 1510 nM | GI50 (HT29 colon): 267 nM | TGI (HT29 colon): 1180 nM | GI50 (IGROV1 ovarian): < 10 nM | TGI (IGROV1 ovarian): < 10 nM | GI50 (K-562 leukemia): 111 nM | TGI (K-562 leukemia): 320 nM | GI50 (KM12 colon): 12 nM | TGI (KM12 colon): 25.5 nM | GI50 (LOX IMVI melanoma): < 10 nM | TGI (LOX IMVI melanoma): < 10 nM | GI50 (M14 melanoma): 37.6 nM | TGI (M14 melanoma): 146 nM | GI50 (MALME-3M melanoma): < 10 nM | TGI (MALME-3M melanoma): < 10 nM | GI50 (MCF7 breast): 1480 nM | TGI (MCF7 breast): 7.97 µM | GI50 (MDA-MB-231 breast): < 10 nM | TGI (MDA-MB-231 breast): < 10 nM | GI50 (MDA-MB-435 melanoma): 1250 nM | TGI (MDA-MB-435 melanoma): 3.51 µM | GI50 (MDA-MB-468 breast): < 10 nM | TGI (MDA-MB-468 breast): < 10 nM | GI50 (MOLT-4 leukemia): 17.4 nM | TGI (MOLT-4 leukemia): 31.6 nM | GI50 (NCI-H226 lung): 218 nM | TGI (NCI-H226 lung): 2000 nM | GI50 (NCI-H23 lung): < 10 nM | TGI (NCI-H23 lung): < 10 nM | GI50 (NCI-H322M lung): 2480 nM | TGI (NCI-H322M lung): 6.89 µM | GI50 (NCI-H460 NSCLC): 1850 nM | TGI (NCI-H460 NSCLC): 3.41 µM | GI50 (NCI-H522 lung): < 10 nM | TGI (NCI-H522 lung): < 10 nM | GI50 (NCI/ADR-RES ovarian): 12 nM | TGI (NCI/ADR-RES ovarian): 44.8 nM | GI50 (OVCAR-3 ovarian): < 10 nM | TGI (OVCAR-3 ovarian): < 10 nM | GI50 (OVCAR-4 ovarian): < 10 nM | TGI (OVCAR-4 ovarian): < 10 nM | GI50 (OVCAR-5 ovarian): 574 nM | TGI (OVCAR-5 ovarian): 2410 nM | GI50 (OVCAR-8 ovarian): 61.6 nM | TGI (OVCAR-8 ovarian): 934 nM | GI50 (PC-3 prostate): 19.6 nM | TGI (PC-3 prostate): 51.8 nM | GI50 (RPMI-8226 leukemia): < 10 nM | TGI (RPMI-8226 leukemia): 18.6 nM | GI50 (RXF 393 renal): < 10 nM | TGI (RXF 393 renal): < 10 nM | GI50 (SF-268 CNS): 11.2 nM | TGI (SF-268 CNS): 25.8 nM | GI50 (SF-295 CNS): 30.2 nM | TGI (SF-295 CNS): 83.4 nM | GI50 (SF-539 CNS): 17.2 nM | TGI (SF-539 CNS): 32 nM | GI50 (SK-MEL-2 melanoma): 64.6 nM | TGI (SK-MEL-2 melanoma): 244 nM | GI50 (SK-MEL-28 melanoma): 2030 nM | TGI (SK-MEL-28 melanoma): 4.34 µM | GI50 (SK-MEL-5 melanoma): 1700 nM | TGI (SK-MEL-5 melanoma): 3.1 µM | GI50 (SK-OV-3 ovarian): 34.2 nM | TGI (SK-OV-3 ovarian): 111 nM | GI50 (SN12C renal): 2010 nM | TGI (SN12C renal): 4.06 µM | GI50 (SNB-19 CNS): 3.02 µM | TGI (SNB-19 CNS): 8.61 µM | GI50 (SNB-75 CNS): 14.2 nM | TGI (SNB-75 CNS): 28.2 nM | GI50 (SW-620 colon): 334 nM | TGI (SW-620 colon): 1390 nM | GI50 (T-47D breast): 80.6 nM | TGI (T-47D breast): 1770 nM | GI50 (TK-10 renal): 21.4 nM | TGI (TK-10 renal): 104 nM | GI50 (U251 glioblastoma): 97.5 nM | TGI (U251 glioblastoma): 444 nM | GI50 (UACC-257 melanoma): 459 nM | TGI (UACC-257 melanoma): 2110 nM | GI50 (UACC-62 melanoma): 17.6 nM | TGI (UACC-62 melanoma): 32.8 nM | GI50 (UO-31 renal): < 10 nM | TGI (UO-31 renal): < 10 nM
